# Measured values published in patent US20140309210A1, “INDAZOLE COMPOUNDS, COMPOSITIONS AND METHODS OF USE THEREOF” (Genentech, Inc., priority 2011, published 2014).
# Target: T1, purified ITK (Invitrogen PV3875) (Homo sapiens, UniProt Q08881)
# T1 construct: purchased Invitrogen PV3875
# T1 sequence (Q08881 1-620): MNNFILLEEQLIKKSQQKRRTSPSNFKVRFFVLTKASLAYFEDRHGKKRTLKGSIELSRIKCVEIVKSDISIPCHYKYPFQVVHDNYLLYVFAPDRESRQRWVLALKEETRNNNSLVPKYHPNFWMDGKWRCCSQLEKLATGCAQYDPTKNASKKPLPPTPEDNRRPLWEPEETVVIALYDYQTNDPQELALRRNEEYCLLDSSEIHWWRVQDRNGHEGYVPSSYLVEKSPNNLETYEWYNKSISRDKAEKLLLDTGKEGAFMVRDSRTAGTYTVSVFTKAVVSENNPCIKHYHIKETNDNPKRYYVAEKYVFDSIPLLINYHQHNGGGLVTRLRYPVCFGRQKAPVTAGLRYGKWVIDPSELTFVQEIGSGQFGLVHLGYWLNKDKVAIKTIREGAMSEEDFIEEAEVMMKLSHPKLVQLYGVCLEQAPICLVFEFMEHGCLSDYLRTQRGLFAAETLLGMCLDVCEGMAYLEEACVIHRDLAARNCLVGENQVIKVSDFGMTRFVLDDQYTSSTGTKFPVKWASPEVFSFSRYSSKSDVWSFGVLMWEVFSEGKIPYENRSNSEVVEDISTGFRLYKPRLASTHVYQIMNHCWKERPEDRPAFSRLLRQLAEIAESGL
# Assay: ITK peptide phosphorylation assay (Caliper LabChip or LCMS)
# Type: biochemical
# Details: Table 1, Examples 141-279
# Method in brief: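 Ki values come from Morrison quadratic fits of activity versus inhibitor concentration, adjusted for ATP-competitive inhibition against ATP/Km,app. Substrate and phosphopeptide from purified ITK reactions were resolved either microfluidically (Caliper, EDTA stop) or by LC-MS MRM (TCA stop).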
row,Compound,Ki [nM]
1,"CN(CCO)c1nc(Cn2cc(NC(=O)c3n[nH]c4cc(-c5cn[nH]c5)ccc34)cn2)cs1 [Example 141, N-[1-[[2-[2-hydroxyethyl(meth-yl)amino]thiazol-4-yl]methyl]pyrazol-4-yl]-6-(1H-pyrazol-4-yl)-1H-indazole-3-carboxamide]",2.8
2,"N#Cc1cccc(Cn2cc(NC(=O)c3n[nH]c4cc(-n5ccnc5)ccc34)cn2)c1 [Example 142, N-[1-[(3-cyanophenyl)meth-yl]pyrazol-4-yl]-6-imidazol-1-yl-1H-indazole-3-carboxamide]",32.4
3,"O=C(Nc1cnn(Cc2cncc(Br)c2)c1)c1n[nH]c2cc(-c3cn[nH]c3)ccc12 [Example 143, N-[1-[(5-bromo-3-pyridyl)methyl]py-razol-4-yl]-6-(1H-pyrazol-4-yl)-1H-indazole-3-carboxamide]",0.614
4,"N#Cc1cccc(Cn2cc(NC(=O)c3n[nH]c4cc(Br)c(F)cc34)cn2)c1 [Example 146, 6-bromo-N-[1-[(3-cyanophenyl)meth-yl]pyrazol-4-yl]-5-fluoro-1H-indazole-3-carboxamide]",111
5,"N#Cc1cccc(Cn2cc(NC(=O)c3n[nH]c4cc(-c5cn[nH]c5)c(F)cc34)cn2)c1 [Example 147, N-[1-[(3-cyanophenyl)meth-yl]pyrazol-4-yl]-5-fluoro-6-(1H-pyrazol-4-yl)-1H-indazole-3-carboxamide]",7.79

# Same assay, conditions: Table 2, Examples 1-140, class symbols
row,Compound,Ki [nM]
1,"CN(C)CCNCc1ccc(Cn2cc(NC(=O)c3n[nH]c4ccccc34)cn2)cc1 [Example 104, N-(1-(4-((2-(dimethylamino)ethylamino)methyl)benzyl)-1H-pyrazol-4-yl)-1H-indazole-3-carboxamide]",1 to 100
2,"O=C(Nc1cnn(Cc2ccc(CNCC(F)F)cc2)c1)c1n[nH]c2ccccc12 [Example 105, N-(1-(4-((2,2-difluoroethylamino)methyl)benzyl)-1H-pyrazol-4-yl)-1H-indazole-3-carboxamide]",1 to 100
3,"CC(O)CNCc1ccc(Cn2cc(NC(=O)c3n[nH]c4ccccc34)cn2)cc1 (stereo not shown) [Example 106, N-(1-(4-((2-hydroxypropylamino)methyl)benzyl)-1H-pyrazol-4-yl)-1H-indazole-3-carboxamide]",1 to 100
4,"O=C(Nc1cnn(Cc2ccc(CNC3CCC3)cc2)c1)c1n[nH]c2ccccc12 [Example 107, N-(1-(4-((cyclobutylamino)methyl)benzyl)-1H-pyrazol-4-yl)-1H-indazole-3-carboxamide]",1 to 100
5,"O=C(Nc1cnn(Cc2ccc(CNCC3CC3)cc2)c1)c1n[nH]c2ccccc12 [Example 108, N-(1-(4-((cyclopropylmethylamino)methyl)benzyl)-1H-pyrazol-4-yl)-1H-indazole-3-carboxamide]",1 to 100
6,"CCCNCc1ccc(Cn2cc(NC(=O)c3n[nH]c4ccccc34)cn2)cc1 [Example 109, N-(1-(4-((propylamino)methyl)benzyl)-1H-pyrazol-4-yl)-1H-indazole-3-carboxamide]",1 to 100
7,"CCNCc1ccc(Cn2cc(NC(=O)c3n[nH]c4ccccc34)cn2)cc1 [Example 110, N-(1-(4-((ethylamino)methyl)benzyl)-1H-pyrazol-4-yl)-1H-indazole-3-carboxamide]",1 to 100
8,"CN(CCC#N)Cc1ccc(Cn2cc(NC(=O)c3n[nH]c4ccccc34)cn2)cc1 [Example 111, N-(1-(4-(((2-cyanoethyl)(methyl)amino)methyl)benzyl)-1H-pyrazol-4-yl)-1H-indazole-3-carboxamide]",1 to 100
9,"CNCc1ccc(Cn2cc(NC(=O)c3n[nH]c4ccccc34)cn2)cc1 [Example 112, N-(1-(4-((methylamino)methyl)benzyl)-1H-pyrazol-4-yl)-1H-indazole-3-carboxamide]",1 to 100
10,"CC(C)(O)CNCc1ccc(Cn2cc(NC(=O)c3n[nH]c4ccccc34)cn2)cc1 [Example 113, N-(1-(4-((2-hydroxy-2-methylpropylamino)methyl)benzyl)-1H-pyrazol-4-yl)-1H-indazole-3-carboxamide]",1 to 100
11,"O=C(Nc1cnn(Cc2ccc(CN3CCC(O)C3)cc2)c1)c1n[nH]c2ccccc12 (stereo not shown) [Example 114, N-(1-(4-((3-hydroxypyrrolidin-1-yl)methyl)benzyl)-1H-pyrazol-4-yl)-1H-indazole-3-carboxamide]",1 to 100
12,"CN(C)Cc1ccc(Cn2cc(NC(=O)c3n[nH]c4ccccc34)cn2)cc1 [Example 115, N-(1-(4-((dimethylamino)methyl)benzyl)-1H-pyrazol-4-yl)-1H-indazole-3-carboxamide]",1 to 100
13,"COc1ccc(-c2ccc3c(C(=O)Nc4cnn(Cc5cccc(C#N)c5)c4)n[nH]c3c2)cn1 [Example 117, N-(1-(3-cyanobenzyl)-1H-pyrazol-4-yl)-6-(6-methoxypyridin-3-yl)-1H-indazole-3-carboxamide]",1 to 100

# More lines, now with the values ahead:
row,Ki [nM],Compound
1,> 100,"Cc1ncccc1-c1ccc2c(C(=O)Nc3cnn(Cc4cccc(C#N)c4)c3)n[nH]c2c1 [Example 118, N-(1-(3-cyanobenzyl)-1H-pyrazol-4-yl)-6-(2-methylpyridin-3-yl)-1H-indazole-3-carboxamide]"
2,1 to 100,"Cc1ccc(-c2ccc3c(C(=O)Nc4cnn(Cc5cccc(C#N)c5)c4)n[nH]c3c2)cn1 [Example 120, N-(1-(3-cyanobenzyl)-1H-pyrazol-4-yl)-6-(6-methylpyridin-3-yl)-1H-indazole-3-carboxamide]"
3,1 to 100,"Cn1cc(-c2ccc3c(C(=O)Nc4cnn(Cc5cccc(C#N)c5)c4)n[nH]c3c2)cn1 [Example 121, N-(1-(3-cyanobenzyl)-1H-pyrazol-4-yl)-6-(1-methyl-1H-pyrazol-4-yl)-1H-indazole-3-carboxamide]"
4,1 to 100,"CC(c1ccccc1)n1cc(NC(=O)c2n[nH]c3ccccc23)cn1 (stereo not shown) [Example 131, N-(1-(1-phenylethyl)-1H-pyrazol-4-yl)-1H-indazole-3-carboxamide]"
5,0.01 to 1,"CN(C)CC(c1ccccc1)n1cc(NC(=O)c2n[nH]c3cc(-c4cn[nH]c4)ccc23)cn1 (stereo not shown) [Example 135, N-(1-(2-(dimethylamino)-1-phenylethyl)-1H-pyrazol-4-yl)-6-(1H-pyrazol-4-yl)-1H-indazole-3-carboxamide]"
6,1 to 100,"CC[C@@H](c1ccccc1)n1cc(NC(=O)c2n[nH]c3cc(-c4ccc(N)nc4)ccc23)cn1 [Example 136, (S)-6-(6-aminopyridin-3-yl)-N-(1-(1-phenylpropyl)-1H-pyrazol-4-yl)-1H-indazole-3-carboxamide]"
7,1 to 100,"CC[C@@H](c1ccccc1)n1cc(NC(=O)c2n[nH]c3cc(-c4cc[nH]n4)ccc23)cn1 [Example 137, (S)—N-(1-(1-phenylpropyl)-1H-pyrazol-4-yl)-6-(1H-pyrazol-3-yl)-1H-indazole-3-carboxamide]"
8,1 to 100,"CC[C@@H](c1ccccc1)n1cc(NC(=O)c2n[nH]c3cc(-c4cncnc4)ccc23)cn1 [Example 138, (S)—N-(1-(1-phenylpropyl)-1H-pyrazol-4-yl)-6-(pyrimidin-5-yl)-1H-indazole-3-carboxamide]"
9,1 to 100,"CC[C@@H](c1ccccc1)n1cc(NC(=O)c2n[nH]c3cc(-c4cccnc4)ccc23)cn1 [Example 139, (S)—N-(1-(1-phenylpropyl)-1H-pyrazol-4-yl)-6-(pyridin-3-yl)-1H-indazole-3-carboxamide]"
10,1 to 100,"CC[C@@H](c1ccccc1)n1cc(NC(=O)c2n[nH]c3cc(-c4ccncc4)ccc23)cn1 [Example 140, (S)—N-(1-(1-phenylpropyl)-1H-pyrazol-4-yl)-6-(pyridin-4-yl)-1H-indazole-3-carboxamide]"

# Same assay, conditions: Table 3, specific values for certain examples
row,Compound,Ki [nM]
1,"Cc1ncccc1-c1ccc2c(C(=O)Nc3cnn(Cc4cccc(C#N)c4)c3)n[nH]c2c1 [Example 118, N-(1-(3-cyanobenzyl)-1H-pyrazol-4-yl)-6-(2-methylpyridin-3-yl)-1H-indazole-3-carboxamide]",110
2,"CC[C@@H](c1ccccc1)n1cc(NC(=O)c2n[nH]c3cc(-c4cc[nH]n4)ccc23)cn1 [Example 137, (S)—N-(1-(1-phenylpropyl)-1H-pyrazol-4-yl)-6-(1H-pyrazol-3-yl)-1H-indazole-3-carboxamide]",9.9
3,"CC[C@@H](c1ccccc1)n1cc(NC(=O)c2n[nH]c3cc(-c4cncnc4)ccc23)cn1 [Example 138, (S)—N-(1-(1-phenylpropyl)-1H-pyrazol-4-yl)-6-(pyrimidin-5-yl)-1H-indazole-3-carboxamide]",5.6
